Experimental data published in PubChem BioAssay (NCI).
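Results reflect a 48-hour exposure of cells in 96-well plates to compound at five concentrations. At the TGI there is no net growth.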

Experiments:
Test in all cases: NCI anticancer screen, dose series, 48 h
NCI-H23 lung = test system: NCI-H23 lung
SF-539 CNS = test system: SF-539 CNS
MDA-MB-435 = test system: MDA-MB-435
A549 NSCLC = test system: A549 NSCLC
HOP-62 NSCLC = test system: HOP-62 NSCLC
A498 renal = test system: A498 renal
SK-MEL-5 melanoma = test system: SK-MEL-5 melanoma
MDA-MB-231 breast = test system: MDA-MB-231 breast
SK-OV-3 ovarian = test system: SK-OV-3 ovarian
SK-MEL-28 melanoma = test system: SK-MEL-28 melanoma

| SMILES | TGI (NCI-H23 lung) | TGI (SF-539 CNS) | TGI (MDA-MB-435) | TGI (A549 NSCLC) | TGI (HOP-62 NSCLC) | TGI (A498 renal) | TGI (SK-MEL-5 melanoma) | TGI (MDA-MB-231 breast) | TGI (SK-OV-3 ovarian) | TGI (SK-MEL-28 melanoma) |
| --- | --- | --- | --- | --- | --- | --- | --- | --- | --- | --- |
| Clc1nc(Cl)c(CBr)c(Cl)n1 | 31.2 µM | 7.76 µM | 17 µM | 35.2 µM | 9.72 µM | 32.1 µM | 8.46 µM | 4.04 µM | 29 µM | 19.9 µM |
| N#Cc1nc(CCC(c2nc(C#N)c(N)o2)N2C(=O)c3ccccc3C2=O)oc1N (centres undefined) | > 100 µM | > 100 µM | > 100 µM | > 100 µM | > 100 µM | > 100 µM | > 100 µM | > 100 µM | > 100 µM | > 100 µM |
| CCOC(=O)Cn1c(=O)c2cc(-c3ccccc3)cc3c(Cl)nc4c(OC)c(OC)cc1c4c32 | 36.2 µM | > 100 µM | 38.3 µM | > 100 µM | > 100 µM | 59.6 µM | > 59.9 µM | > 100 µM | > 100 µM | 55.4 µM |
| COC(=O)c1ccccc1C1CN=NC12Cc1cccc(C)c1C2=O (centres undefined) | > 100 µM | > 100 µM | > 100 µM | > 100 µM | > 100 µM | > 100 µM | > 100 µM | > 100 µM | > 100 µM | > 100 µM |
| Nc1ccc(Oc2ccc(C34CC5CC6C3CC3CC4C(C5)C6(c4ccc(Oc5ccc(N)c(O)c5)cc4)C3)cc2)cc1O | 31.2 µM | 0.652 µM | 29.3 µM | 12.9 µM | 18.3 µM | 20.4 µM | 9.24 µM | 14.9 µM | 21.7 µM | 23.6 µM |
| O=C1c2ccccc2-c2nc(/C=C/c3ccccc3)cc3c2c1nc1ccccc13 | 28.9 µM | > 100 µM | 26.9 µM | > 100 µM | 76.3 µM | > 100 µM | 8.8 µM | 74 µM | > 100 µM | 44.6 µM |
| N#Cc1ccc(Oc2nc3ccc(C(F)(F)F)cc3nc2-c2ccccc2)cc1 | 32 µM | 89.3 µM | 33.8 µM | 35.9 µM | 36 µM | 31.2 µM | 46.5 µM | 36.8 µM | 26.9 µM | 30.2 µM |
| CCc1nc2ccc(C(F)(F)F)cc2[nH]c1=O | > 100 µM | > 100 µM | > 100 µM | > 100 µM | > 100 µM | > 100 µM | > 100 µM | > 100 µM | > 100 µM | > 100 µM |
| O=C(OCCC12CC3CC(CC(C3)C1)C2)c1ccc(NCc2cc(O)ccc2O)cc1 | 3.28 µM | 2.08 µM | 3.84 µM | 15.7 µM | 13.4 µM | 4.83 µM | 2.51 µM | 5.31 µM | 13.1 µM | 2.24 µM |
| O=[N+]([O-])c1ccc2c(c1)c(S(=O)(=O)O)cc1nonc12 | > 100 µM | > 100 µM | > 100 µM | > 100 µM | > 100 µM | > 100 µM | > 100 µM | > 100 µM | > 100 µM | > 100 µM |
| CC1(CC2=C(C(=O)NCCO[Si](C)(C)C(C)(C)C)C3(OCCO3)C2=O)OCCO1 | > 100 µM | > 100 µM | > 100 µM | > 100 µM | > 100 µM | > 100 µM | > 100 µM | > 100 µM | > 100 µM | > 100 µM |
| CC(=O)NC(Cc1ccc(OP(=O)(OCc2ccc([N+](=O)[O-])o2)N(C)CCCCCl)cc1)C(=O)NC(C)c1ccc(OCC2CCCCC2)c(C(N)=O)c1 (centres undefined) | 6.3 µM | 4.35 µM | 4.81 µM | 18.2 µM | 23.7 µM | 35.4 µM | 3.08 µM | 4.79 µM | 37.3 µM | 4.08 µM |
| Clc1c(C(Cl)(Cl)Cl)nsc1N1CCCCC1 | 34.7 µM | 68.5 µM | 66.1 µM | > 100 µM | 73.8 µM | 46.1 µM | 29.6 µM | 77.5 µM | 78.9 µM | > 100 µM |
| Cc1nc2ccccc2n1Cc1nnc(N)o1 | > 100 µM | > 100 µM | 21.3 µM | > 100 µM | > 100 µM | > 100 µM | > 100 µM | > 100 µM | > 100 µM | > 100 µM |
| C[C@]1(O)O[C@@H]2OCC[C@@H]2C2=C1C(=O)c1ccccc1C2=O | 31.6 µM | 31.7 µM | 19.5 µM | 35.2 µM | 26.7 µM | 27.1 µM | 24.8 µM | 49.3 µM | 45.6 µM | 82.5 µM |
| c1ccc2c(c1)CC1COc3ccccc3C1O2 (centres undefined) | > 100 µM | > 100 µM | > 100 µM | > 100 µM | > 100 µM | > 100 µM | 37.9 µM | > 100 µM | > 100 µM |  |
